Assay results published in PubChem BioAssay AID1918994 (Molecular Pharmacology Branch, DTP, NCI, 2023).
Where “and” joins values, the source holds several entries; their conditions need not be identical. Equal entries are not always repeated.

Test system: 292921-168-R-J2-PDC complex spheroid growth
Assay: Anticancer human tumor 292921-168-R-J2-PDC patient-derived pancreatic carcinoma cell line growth inhibition [AhR]
Details: for viability, T/C: stronger effect = lower value; for IC50: curve of compound
From the text: Multicellular complex tumor spheroid response to aryl hydrocarbon receptor antagonists in combination with a variety of drugs and investigational agents in selected tumor cell lines
The current study was undertaken to assess response to aryl hydrocarbon receptor antagonists in combination with standard-of-care drugs and investigational agents in solid tumor complex spheroid models. Complex spheroids include a stromal component modeled by human endothelial cells (HUVEC) and fibroblasts modeled by human mesenchymal stem cells (MSCs). The concentration ranges selected for each drug and investigational agent were based upon clinically achievable concentrations if the clinical Cmax of the agent was known.
Compounds. The drugs and investigational agents: BAY 2416964 (NSC825713), GNF351 (NSC835774), CH-223191 (NSC835775), CPI-455 (NSC825282), aza-TdCyd (NSC777586), decitabine (NSC127716), belinostat (NSC758774), entinostat (NSC756642), pevonedistat (NSC761192), tazemetostat (NSC777109), talazoparib (NSC765396), olaparib (NSC753686), selinexor (NSC780203), nedisertib (M3814, NSC802822), bortezomib (NSC756655), venetoclax (NSC766270), doxorubicin (NSC123127), elimusertib (BAY189344, NSC800525), ceralasertib (AZD6738, NSC777638), TAK-243 (NSC785004), alisertib (NSC759677), etoposide (NSC141540), topotecan (NSC609699), eribulin (NSC707389), gemcitabine (NSC613327), carboplatin (NSC241240), cisplatin (NSC119875), and SN-38 (NSC673596) were obtained from the National Cancer Institute (NCI) Developmental Therapeutics Program Chemical Repository (32). The FDA-approved anticancer drug set is available from the Developmental Therapeutics Program at https://dtp.cancer.gov/organization/dscb/obtaining/available plates.htm. […] The stock solutions were prepared in dimethyl sulfoxide (DMSO, Sigma-Aldrich, St. Louis, MO, cat. D2650), except for the platinum compounds which were prepared in saline (Quality Biological, Gaithersburg, MD, cat. 114-055-101), at 800-fold the tested concentration and stored at -70 degrees C prior to their use. All drugs and investigational agents were tested over a range starting from a high concentration at or near the clinical Cmax and decreasing in half-log increments. If the clinical Cmax for an agent had not been determined, the highest concentration tested was 10 microM (Table 1).
Cell Culture. All cells were maintained in an incubator at 37 degrees C and 5% CO2 with 95% humidity. The PDC lines were cultured according to standard operating procedures established by the NCI PDMR (https://pdmr.cancer.gov). Briefly, all PDCs were thawed and cultured in Matrigel-coated flasks prepared with a working solution of 1X Ham's F-12 nutrient mix, without supplementation (Invitrogen, Waltham, MA, cat. 11765054), 100 U/mL penicillin-streptomycin (Invitrogen, cat. 15140122), and 2.5% Matrigel (Corning Inc., Corning, NY, cat. 354248) for the first three passages. All PDCs were cultured in complete DMEM/F-12 media containing advanced DMEM/F-12 (Invitrogen, cat. 12634028), 4.9% defined fetal bovine serum, heat inactivated (HyClone Laboratories Inc., Logan, UT, cat. SH30070.03HI), 389 ng/mL hydrocortisone (Sigma-Aldrich, cat. H4001), 9.7 ng/mL human EGF recombinant protein (Invitrogen, cat. PHG0313), 23.4 microg/mL adenine (Sigma-Aldrich, cat. A2786), 97.3 U/mL penicillin-streptomycin (Invitrogen, cat. 15140122), 1.9 mM L-glutamine (Invitrogen, cat. 25030081), and 9.7 microM Y-27632 dihydrochloride (Tocris Bioscience, Bristol, United Kingdom, cat. 1254). The PDCs were cultured in complete DMEM/F12 media without 10 microM Y-27632 dihydrochloride for at least two passages prior to the screen. The established cell lines NCI-H1341 and […] were cultured in DMEM/F-12, HEPES (Invitrogen, cat. 11330032), 5% defined fetal bovine serum (HyClone Laboratories Inc., cat. SH30070.03), ITS premix universal culture supplement [insulin (5 microg/mL), transferrin (5 microg/mL), and selenious acid (5 ng/mL)] […]
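Also: spheroids exposed to compounds for seven days after three days of growth.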

| Structure (SMILES) | IC50 | viability, T/C (compound 0.000949 µM) | viability, T/C (compound 0.003 µM) | viability, T/C (compound 0.00949 µM) | viability, T/C (compound 0.03 µM) | viability, T/C (compound 0.0949 µM) | viability, T/C (compound 0.3 µM) | viability, T/C (compound 0.00316 µM) | viability, T/C (compound 0.01 µM) | viability, T/C (compound 0.0316 µM) | viability, T/C (compound 0.1 µM) | viability, T/C (compound 0.316 µM) | viability, T/C (compound 1 µM) | viability, T/C (compound 0.949 µM) | viability, T/C (compound 3 µM) | viability, T/C (compound 0.000316 µM) | viability, T/C (compound 0.001 µM) | viability, T/C (compound 3.16 µM) | viability, T/C (compound 10 µM) |
| --- | --- | --- | --- | --- | --- | --- | --- | --- | --- | --- | --- | --- | --- | --- | --- | --- | --- | --- | --- |
| CC[C@@]1(O)C(=O)OCc2c1cc1n(c2=O)Cc2cc3c(CN(C)C)c(O)ccc3nc2-1 | 0.0456 µM and 0.0307 µM and 0.0244 µM |  |  |  |  |  |  | 94.2% and 93.7% and 90.6% | 83.7% and 86.5% and 77.4% | 59.3% and 48.2% and 41.8% | 28.4% and 23.3% and 20.4% |  |  |  |  | 110% and 102% and 99.3% | 103% and 107% and 96.5% |  |  |
| COc1cc(C2c3cc4c(cc3C(OC3OC5COC(C)OC5C(O)C3O)C3COC(=O)C23)OCO4)cc(OC)c1O (stereo not drawn) | 0.768 µM and 0.71 µM and 0.449 µM |  |  |  |  |  |  |  |  | 96% and 96.6% and 96.5% | 93.8% and 79.8% and 87.8% | 66.4% and 73% and 56% | 43.2% and 38.8% and 31.6% |  |  |  |  | 29% and 26% and 19.7% | 13.7% and 15.4% and 10.6% |
| COc1cccc2c1C(=O)c1c(O)c3c(c(O)c1C2=O)CC(O)(C(=O)CO)CC3OC1CC(N)C(O)C(C)O1 (stereo not drawn) | < 0.0316 µM |  |  |  |  |  |  |  |  | 37.4% and 25.9% and 34.4% | 26.1% and 17.6% and 21.9% | 10.9% and 4.94% and 7.46% | 0.32% (2×) and 0.28% |  |  |  |  | 0.76% (2×) and 0.73% | 2.02% and 2.08% and 3.06% |
| Nc1ccn(C2OC(CO)C(O)C2(F)F)c(=O)n1 (stereo not drawn) | < 0.0316 µM |  |  |  |  |  |  |  |  | 11.7% and 10.6% and 9.71% | 9.82% and 10.9% and 7.67% | 9.66% and 9.32% and 10.4% | 10.1% and 11.1% and 8.88% |  |  |  |  | 9.41% and 11.4% and 8.79% | 7.29% and 6.09% and 6.67% |
| Nc1ncn(C2CC(O)C(CO)O2)c(=O)n1 (stereo not drawn) | > 1 µM |  |  |  |  |  |  | 107% and 102% and 96.8% | 99.8% and 97.5% and 103% | 95.7% and 100% and 89.4% | 93.7% and 93.1% and 77.7% | 86.8% and 83% and 89% | 76.3% and 76.8% and 78.2% |  |  |  |  |  |  |
| Nc1ncn(C2CC(O)C(CO)S2)c(=O)n1 (stereo not drawn) | > 0.3 µM | 108% and 106% and 99.4% | 111% and 90.8% and 101% | 107% and 98.6% and 93.5% | 90.9% and 104% and 96.8% | 90.8% and 93.8% and 95.5% | 88.6% and 81.2% and 78.3% |  |  |  |  |  |  |  |  |  |  |  |  |

Further lines, with some results ahead:

| IC50 | Structure (SMILES) | viability, T/C (compound 0.000949 µM) | viability, T/C (compound 0.003 µM) | viability, T/C (compound 0.00949 µM) | viability, T/C (compound 0.03 µM) | viability, T/C (compound 0.0949 µM) | viability, T/C (compound 0.3 µM) | viability, T/C (compound 0.00316 µM) | viability, T/C (compound 0.01 µM) | viability, T/C (compound 0.0316 µM) | viability, T/C (compound 0.1 µM) | viability, T/C (compound 0.316 µM) | viability, T/C (compound 1 µM) | viability, T/C (compound 0.949 µM) | viability, T/C (compound 3 µM) | viability, T/C (compound 0.000316 µM) | viability, T/C (compound 0.001 µM) | viability, T/C (compound 3.16 µM) | viability, T/C (compound 10 µM) |
| --- | --- | --- | --- | --- | --- | --- | --- | --- | --- | --- | --- | --- | --- | --- | --- | --- | --- | --- | --- |
| 0.0102 µM and 0.00692 µM and 0.00594 µM | CC(C)CC(NC(=O)C(Cc1ccccc1)NC(=O)c1cnccn1)B(O)O (stereo not drawn) | 106% and 109% and 104% | 116% and 121% and 106% | 53.1% and 25.4% and 12.2% | 3.87% and 2.27% and 1.64% | 0.72% and 0.67% and 0.85% | 0.4% and 0.5% and 2.3% |  |  |  |  |  |  |  |  |  |  |  |  |
| 0.058 µM and 0.0547 µM and 0.0457 µM | CC1COCCN1c1cc(-c2ccnn2C)c2ccnc(-c3ccn[nH]3)c2n1 (stereo not drawn) |  |  |  |  |  |  | 99.6% and 103% and 96.5% | 90.4% and 97.9% and 92.8% | 65.1% and 66.1% and 56.9% | 36.3% and 32.1% and 32.4% | 23.2% and 19.6% and 21.7% | 19.2% and 17.7% and 17.8% |  |  |  |  |  |  |
| > 3 µM | CCN(c1cc(-c2ccc(CN3CCOCC3)cc2)cc(C(=O)NCc2c(C)cc(C)[nH]c2=O)c1C)C1CCOCC1 |  |  | 98.8% and 103% and 105% | 106% and 107% and 104% | 109% and 96.8% and 96.2% | 100% and 97.3% and 98.5% |  |  |  |  |  |  | 99.8% and 89.8% and 102% | 93.2% and 91% and 90.2% |  |  |  |  |
| 0.00342 µM and 0.00429 µM and 0.00179 µM | CCc1c2c(nc3ccc(O)cc13)-c1cc3c(c(=O)n1C2)COC(=O)[C@]3(O)CC | 72.1% and 79.3% and 54.5% | 53.6% and 63.4% and 47.4% | 25.5% and 20.2% and 23.6% | 12.2% and 9.77% and 13% | 6.69% and 4.55% and 7% | 3.7% and 2.95% and 3.56% |  |  |  |  |  |  |  |  |  |  |  |  |
| > 0.1 µM | Cn1ncnc1C1c2n[nH]c(=O)c3cc(F)cc(c23)NC1c1ccc(F)cc1 (stereo not drawn) |  |  |  |  |  |  | 96.3% and 91.7% and 97.4% | 96.2% and 96.3% and 97.7% | 88% and 97.5% and 90.3% | 91.5% and 80.2% and 86% |  |  |  |  | 101% and 103% and 106% | 103% and 111% and 95.4% |  |  |
| 0.267 µM and 0.46 µM and 0.151 µM | Nc1ccccc1NC(=O)c1ccc(CNC(=O)OCc2cccnc2)cc1 |  |  |  |  |  |  |  |  | 76.9% and 70.7% and 72.6% | 61.6% and 61% and 53% | 44.2% and 57.2% and 42.1% | 38.7% and 39.4% and 26.1% |  |  |  |  | 24.4% and 26.4% and 21.3% | 11.8% and 10.3% and 8.62% |
| 0.191 µM and 0.154 µM and 0.129 µM | O=C(C=Cn1cnc(-c2cc(C(F)(F)F)cc(C(F)(F)F)c2)n1)NNc1cnccn1 |  |  | 104% and 95% and 86.6% | 97.2% and 93% and 80.9% | 64.4% and 58.7% and 54.5% | 39.5% and 34.5% and 32.4% |  |  |  |  |  |  | 25.6% and 18.9% and 22.2% | 15.2% and 10.5% and 13.3% |  |  |  |  |
| > 10 µM | O=C(c1cc(Cc2n[nH]c(=O)c3ccccc23)ccc1F)N1CCN(C(=O)C2CC2)CC1 |  |  |  |  |  |  |  |  | 110% and 97.3% and 99.3% | 110% and 100% and 95.6% | 95.5% and 93.5% and 84.8% | 98.6% and 97.8% and 91.6% |  |  |  |  | 102% and 92.5% and 83.3% | 80% and 74.5% and 68% |
